This is an account of results in US12168037B2, “Intracellular IL-1 alpha peptide methods and compositions” (CEDARS-SINAI MEDICAL CENTER, priority 2018, dated 2024).

Ends that are not written are not given here.

The data set deals with melanoma cells. Kind of data set: Cytotoxicity to melanoma cells. The class given is cell-based, mouse. Particulars: 40 μg/ml, 5 h. On the procedure: We label the SPDIA peptide with 680XL tag (680XL-SPDIA) using the VivoTag 680XL Protein Labeling Kit (PerkinElmer) for determine half-life and membrane penetrating efficiency of SPDIA peptide. B16 or YUMM1.7 melanoma cells are treated with 680XL-SPDIA peptide at various doses (10-100 μg/ml) and durations (1-10 h), and live images for intracellular expression and half-life of the SPDIA peptide are detected by fluorescence microscopy (Keyence, BZ-X). Further, the cellular cytotoxicity to the B16 and YUMM1.7 melanoma cells are measured by LDH cytotoxicity assay kit.
While we do […] expect to observe any cytotoxicity in vitro, at cells at lower concentrations of SPDIA peptide for longer durations (24, 48 h) and assess cell death.

Regarding GKVLKKRRLSL [SPDIA, GKVLKKRRLSL], the cytotoxicity entry is on record as “without inducing cytotoxicity”.
